According to patent publication US9550776B2, “Pyridinylpyrazoloquinoline compounds” (Eisai R&D Management Co., Ltd., priority 2013, dated 2017):

How the values were obtained:
[1] = biological target: T1, human recombinant PDE9 protein (Homo sapiens, UniProt O76083); test: PDE9 inhibitory activity test ([3H]-cGMP hydrolysis); type: biochemical
T1 construct: made in house; host or cells: silkworm (pYNG vector, Katakura Industries)
Experimental: An hsPDE9A 1cDNA fragment was amplified by being based on a base sequence (Accession No.: AF048837) of the hsPDE9A1 registered on GenBank data base, and by using the following sequences (Hokkaido System Science Co., Ltd.) as a primer and Human hippocampus cDNA library (Clontech Laboratories, Inc.) as a template DNA, and using Pfu50 DNA polymerase (Invitrogen Corp.), and by a polymerase chain reaction (PCR) of the following condition.
The condition of PCR: [96° C., 5 min]×1 cycle, [(96° C., 10 sec), (57° C., 5 sec), (72° C., 2 min)]×30 cycles
The obtained hsPDE9A 1cDNA fragment was incorporated in a TOPO-TA cloning vector (Invitrogen Corp.), and the base sequence was checked; and thereafter, the resultant was transfected in a pcDNA 3.1/myc His-tag vector (Invitrogen Corp.) to thereby make a human PDE9 expression vector for mammal cells. The human PDE9 expression vector for mammal cells was transfected with transient expression to an HEK293 cell by using a LIPOFETAMINE 2000 Reagent (Gibco). It was confirmed by Western blot method that the PDE9A expressed in the HEK293 cell, and then, the human PDE9A 1cDNA fragment was transfected in a pYNG vector (Katakura Industries Co., Ltd.) to thereby make an expression vector for insect cells. A supernatant of homogenized silk worm in which a large amount of PDE9 was expressed was purified by an equilibrated Ni column using a buffer A (20 mmol/L Tris-HCl, pH: 8.0, 1 mmol/L DTT, 10 mmol/L imidazole). After 1 hour of mixing of the supernatant and the Ni column, cleaning was carried out using a buffer B (20 mmol/L Tris-HCl, pH: 8.0, 1 mmol/L DTT), and elution was carried out using a buffer C (20 mmol/L Tris-HCl, pH: 8.0, 1 mmol/L DTT, 100 mmol/L imidazole). An elution fraction was preparatively collected to thereby obtain a PDE9 enzyme solution.
To 100 μL of a buffer D (40 mmol/L Tris-HCl, pH: 7.4, 10 mmol/L MgCl2, 1 mM DTT, 2 μM cGMP) solution containing [^3H]-cGMP (0.5 μCi/mL), 10 μL of a compound solution for evaluation (a solution in which a compound was dissolved in DMSO and diluted so that the DMSO concentration became 5%) and 90 μL of a solution prepared by diluting the PDE9 enzyme solution prepared in the above with a buffer E (40 mmol/L Tris-HCl, pH: 7.4, 10 mmol/L MgCl2, 1 mM DTT, 1 mmol/L EGTA) were added under ice cooling. The resultant mixed solution was incubated at 30° C. for 10 min, and thereafter heated for 2 min in boiled water to stop the enzyme reaction of the PDE9. Then, the resultant was returned to room temperature; 50 μL of 5′-Nucleotidase (Biomol GmbH, 10 units/mL) was added thereto; and the resultant was incubated at 30° C. for 10 min to thereby convert [^3H]-5′-GMP formed in the previous reaction to [^3H]-guanosine. 500 μL of an anion exchange resin (Bio-Rad AGl-X2 resin, mesh size: 200-400, H2O:resin=2:1) was added to the resultant reaction liquid, and allowed to stand for 10 min, and thereafter centrifuged (2,000 rpm, 10 min); and a supernatant in which the [^3H]-guanosine was present was transferred to a LumaPlate (PerkinElmer, Inc.), and the radioactivity was measured by a TopCount NXT microplate scintillation and luminescence counter (PerkinElmer, Inc.).
The inhibition percentage of the evaluation compound was calculated using the following expression, taking the radioactivity of a control containing no evaluation compound to be (A), the radioactivity of a blank containing no enzyme to be (B), and the radioactivity of the evaluation compound to be (C). Inhibition percentage=100−{[(C)−(B)]/[(A)−(B)]}×100(%)
The IC50 value for PDE9 of the evaluation compound was determined from inhibition percentage for various concentrations.

hippocampal cGMP = test: Effect on rodent hippocampal cGMP; type: in vivo; conditions: rat (LE), 10 mg/kg p.o., sampling time 2 hr
Experimental: The test compound was administered to Sprague-Dawley male rats (Charles River Laboratories Japan, Inc.) or Long-Evans male rats (Institute for Animal Reproduction) and then the animals were sacrificed with microwave under pentobarbital anesthesia, and the hippocampus was extracted. After measuring the wet weight, the hippocampus was frozen with liquid nitrogen and stored at −80° C. In the measurement of cGMP in the hippocampus, a 0.5 M perchloric acid/1 mM EDTA solution was added at 5% (w/v) based on the wet weight, and the mixture was homogenized. After the homogenization, the homogenate was centrifuged (10000 rpm, 15 min), and the supernatant was collected. The collected supernatant was neutralized with a 2 M potassium bicarbonate solution and centrifuged (13000 rpm, 10 min). The cGMP concentration in the supernatant was measured in accordance with the non-acetylation EIA procedure of cGMP EIA kit (GE Healthcare). The result was an increase (C) in the amount of cGMP of the test compound-administered group (B) relative to the amount of cGMP of the vehicle-administered group (A), and was calculated using the following formula. cGMP increase(C)=[(B)−(A)]/(A)×100(%)

cerebrospinal fluid cGMP = test: Effect on rodent cerebrospinal fluid cGMP; type: in vivo; conditions: rat (LE), 10 mg/kg p.o., sampling time 2 hr
Experimental: The test compound was administered to ICR male mice (Charles River Laboratories Japan, Inc.), Sprague-Dawley male rats (SD) (Charles River Laboratories Japan, Inc.) or Long-Evans male rats (LE) (Institute for Animal Reproduction), and the cerebrospinal fluid was then collected under pentobarbital anesthesia and stored at −20° C. cGMP in the cerebrospinal fluid was measured in accordance with the acetylation EIA procedure of cGMP EIA kit (GE Healthcare) or the non-acetylation procedure of cGMP EIA kit (Cayman). The result was an increase (C) in the amount of cGMP of the test compound-administered group (B) relative to the amount of cGMP of the vehicle-administered group (A), and was calculated using the following formula. cGMP increase(C)=[(B)−(A)]/(A)×100(%)

T1 sequence (O76083 whole entry): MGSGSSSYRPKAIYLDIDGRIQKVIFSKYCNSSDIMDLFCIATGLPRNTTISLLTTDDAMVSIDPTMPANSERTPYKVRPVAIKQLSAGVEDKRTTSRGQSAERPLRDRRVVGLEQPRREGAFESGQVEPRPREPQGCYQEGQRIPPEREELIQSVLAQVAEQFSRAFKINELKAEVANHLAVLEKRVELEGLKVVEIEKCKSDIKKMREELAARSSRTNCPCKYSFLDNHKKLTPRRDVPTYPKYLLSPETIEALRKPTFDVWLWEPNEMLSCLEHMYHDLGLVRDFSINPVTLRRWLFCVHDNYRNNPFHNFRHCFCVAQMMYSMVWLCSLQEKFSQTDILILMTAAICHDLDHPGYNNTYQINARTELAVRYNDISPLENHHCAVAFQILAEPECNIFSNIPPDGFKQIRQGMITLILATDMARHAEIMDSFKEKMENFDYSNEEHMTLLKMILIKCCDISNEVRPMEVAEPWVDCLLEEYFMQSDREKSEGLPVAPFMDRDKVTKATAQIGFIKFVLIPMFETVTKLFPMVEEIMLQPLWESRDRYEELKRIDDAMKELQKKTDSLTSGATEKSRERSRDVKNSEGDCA

| Compound | IC50 [1] | % hippocampal cGMP increase from vehicle control (hippocampal cGMP) | % CSF cGMP increase from vehicle control (cerebrospinal fluid cGMP) |
| --- | --- | --- | --- |
| COc1nc(C)cc(C)c1-c1ccc2c(c1)[nH]c(=O)c1cnn([C@@H]3CCOC[C@@H]3C)c12 (single isomer, unassigned) [Example 2c, (+)-7-(2-Methoxy-4,6-dimethylpyridin-3-yl)-1-((3R*,4R*)-3-methyltetrahydro-2H-pyran-4-yl)-1H-pyrazolo[4,3-c]quinoline-4(5H)-one] | 12.3 nM |  |  |
| (+)-7-(6-Methoxy-2,4-dimethylpyridin-3-yl)-1-((3R*,4S*)-3-methyltetrahydro-2H-pyran-4-yl)-1H-pyrazolo[4,3-c]quinoline-4(5H)-one [Example 1c] | 87.2 nM |  |  |
| (+)-7-(6-methoxy-2,4-dimethylpyridin-3-yl)-1-((3R*,4R*)-3-methyltetrahydro-2H-pyran-4-yl)-1H-pyrazolo[4,3-c]quinoline-4(5H)-one [Example 1a] | 48 nM |  |  |
| (+)-7-(2-methoxy-4,6-dimethylpyridin-3-yl)-1-((3R*,4S*)-3-methyltetrahydro-2H-pyran-4-yl)-1H-pyrazolo[4,3-c]quinoline-4(5H)-one [Example 2a] | 11.6 nM |  |  |
| (−)-7-(2-Methoxy-4,6-dimethylpyridin-3-yl)-1-((3R*,4S*)-3-methyltetrahydro-2H-pyran-4-yl)-1H-pyrazolo[4,3-c]quinoline-4(5H)-one [Example 2d] | 1.3 nM | 23% | 183% |
| (−)-7-(6-Methoxy-2,4-dimethylpyridin-3-yl)-1-((3R*,4S*)-3-methyltetrahydro-2H-pyran-4-yl)-1H-pyrazolo[4,3-c]quinoline-4(5H)-one [Example 1d] | 6.9 nM | 61% | 206% |
| COc1nc(C)cc(C)c1-c1ccc2c(c1)[nH]c(=O)c1cnn([C@@H]3CCOC[C@@H]3C)c12 (single isomer, unassigned) [Example 2b, (−)-7-(2-Methoxy-4,6-dimethylpyridin-3-yl)-1-((3R*,4R*)-3-methyltetrahydro-2H-pyran-4-yl)-1H-pyrazolo[4,3-c]quinoline-4(5H)-one] | 3.7 nM |  |  |
| (−)-7-(6-Methoxy-2,4-dimethylpyridin-3-yl)-1-((3R*,4R*)-3-methyltetrahydro-2H-pyran-4-yl)-1H-pyrazolo[4,3-c]quinoline-4(5H)-one [Example 1b] | 13.6 nM | 44% | 147% |

Continued, in another order:

| IC50 [1] | Compound | % hippocampal cGMP increase from vehicle control (hippocampal cGMP) | % CSF cGMP increase from vehicle control (cerebrospinal fluid cGMP) |
| --- | --- | --- | --- |
| 12.7 nM | COc1ncc(C)c(-c2ccc3c(c2)[nH]c(=O)c2cnn([C@H]4CC[C@H](OC)CC4)c23)c1C [Example 5b, 7-(2-methoxy-3,5-dimethylpyridin-4-yl)-1-(trans-4-methoxycyclohexyl)-1H-pyrazolo[4,3-c]quinoline-4(5H)-one] | 41% | 167% |
| 6.9 nM | (−)-7-(2-methoxy-3,5-dimethylpyridin-4-yl)-1-((3R*,4R*)-3-methyltetrahydro-2H-pyran-4-yl)-1H-pyrazolo[4,3-c]quinoline-4(5H)-one [Example 3a] | 58% | 200% |
| 39.1 nM | (+)-7-(2-Methoxy-3,5-dimethylpyridin-4-yl)-1-((3R*,4S*)-3-methyltetrahydro-2H-pyran-4-yl)-1H-pyrazolo[4,3-c]quinoline-4(5H)-one [Example 4b] |  |  |
| 9.8 nM | COc1ncc(C)c(-c2ccc3c(c2)[nH]c(=O)c2cnn([C@H]4CC[C@@H](OC)CC4)c23)c1C [Example 5a, 7-(2-methoxy-3,5-dimethylpyridin-4-yl)-1-(cis-4-methoxycyclohexyl)-1H-pyrazolo[4,3-c]quinoline-4(5H)-one] |  |  |
| 25.6 nM | (+)-7-(2-Methoxy-3,5-dimethylpyridin-4-yl)-1-((3R*,4R*)-3-methyltetrahydro-2H-pyran-4-yl)-1H-pyrazolo[4,3-c]quinoline-4(5H)-one [Example 3b] |  |  |
| 5.8 nM | (−)-7-(2-Methoxy-3,5-dimethylpyridin-4-yl)-1-((3R*,4S*)-3-methyltetrahydro-2H-pyran-4-yl)-1H-pyrazolo[4,3-c]quinoline-4(5H)-one [Example 4a] |  |  |
